# Reference: ChEMBL document CHEMBL1201862, “PubChem BioAssay data set” (2004)
# Activity calls are given as the source filed them.
# Assays:
# Protein skinhead-1 = target: T1, Protein skinhead-1 (Caenorhabditis elegans, UniProt P34707); type: functional
# T1 sequence (P34707 whole entry): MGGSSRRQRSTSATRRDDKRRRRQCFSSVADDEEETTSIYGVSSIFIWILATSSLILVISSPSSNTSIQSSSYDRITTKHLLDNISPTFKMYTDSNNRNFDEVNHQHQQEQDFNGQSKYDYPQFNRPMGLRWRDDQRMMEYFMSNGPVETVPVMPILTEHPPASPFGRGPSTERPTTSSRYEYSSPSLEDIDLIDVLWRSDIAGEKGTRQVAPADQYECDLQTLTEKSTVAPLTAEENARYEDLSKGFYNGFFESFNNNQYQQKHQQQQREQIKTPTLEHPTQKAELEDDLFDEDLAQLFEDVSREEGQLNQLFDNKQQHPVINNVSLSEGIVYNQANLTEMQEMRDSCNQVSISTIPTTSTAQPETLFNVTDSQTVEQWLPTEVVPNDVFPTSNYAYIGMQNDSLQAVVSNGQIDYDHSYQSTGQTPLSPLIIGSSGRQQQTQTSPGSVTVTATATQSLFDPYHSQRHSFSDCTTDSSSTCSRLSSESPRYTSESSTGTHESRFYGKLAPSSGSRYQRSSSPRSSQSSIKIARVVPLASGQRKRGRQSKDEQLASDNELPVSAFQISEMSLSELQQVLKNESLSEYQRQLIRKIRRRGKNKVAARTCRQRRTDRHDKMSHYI
# Genome polyprotein = Genome polyprotein (dengue virus type 2, UniProt P29990); assay: Dengue-2 NS5 methyltransferase inhibitors, primary screen, biochemical, confirmation dose response (AID 588689); type: functional
# Genome polyprotein, sequence (P29990 2492-3391 limits assumed): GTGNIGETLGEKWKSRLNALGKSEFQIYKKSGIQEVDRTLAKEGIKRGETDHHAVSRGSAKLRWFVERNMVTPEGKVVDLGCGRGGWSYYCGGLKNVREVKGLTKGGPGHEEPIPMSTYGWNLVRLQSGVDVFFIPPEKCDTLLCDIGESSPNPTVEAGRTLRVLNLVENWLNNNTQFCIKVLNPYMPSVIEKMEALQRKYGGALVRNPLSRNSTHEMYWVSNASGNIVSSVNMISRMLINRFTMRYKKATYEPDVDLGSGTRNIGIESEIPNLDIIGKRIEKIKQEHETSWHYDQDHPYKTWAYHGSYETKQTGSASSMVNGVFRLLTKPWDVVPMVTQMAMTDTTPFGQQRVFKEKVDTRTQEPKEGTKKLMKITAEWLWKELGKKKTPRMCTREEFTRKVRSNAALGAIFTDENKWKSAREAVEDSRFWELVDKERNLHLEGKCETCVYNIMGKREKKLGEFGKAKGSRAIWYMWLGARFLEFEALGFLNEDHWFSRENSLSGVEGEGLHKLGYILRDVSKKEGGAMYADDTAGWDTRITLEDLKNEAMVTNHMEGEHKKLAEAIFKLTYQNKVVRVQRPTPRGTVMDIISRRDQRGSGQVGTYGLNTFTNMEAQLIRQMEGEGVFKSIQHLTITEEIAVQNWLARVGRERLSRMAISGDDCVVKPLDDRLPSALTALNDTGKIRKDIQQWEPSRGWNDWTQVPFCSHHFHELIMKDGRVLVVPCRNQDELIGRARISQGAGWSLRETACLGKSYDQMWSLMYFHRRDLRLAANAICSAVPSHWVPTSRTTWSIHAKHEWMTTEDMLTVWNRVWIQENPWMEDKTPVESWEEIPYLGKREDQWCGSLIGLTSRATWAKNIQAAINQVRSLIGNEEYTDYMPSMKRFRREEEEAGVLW
# [1] = target: T2, Heat shock factor protein 1 (Mus musculus, UniProt P38532); assay: inhibition of MG132-induced HSE-luciferase signal, confirmation, cell-based, NIH3T3, luminescence, dose retest (AID 2382); type: functional;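 note: NIH3T3 fibroblasts with HSF1-driven luciferase reporter stressed by proteasome inhibitor MG132; luminescence from HSF1-driven luciferase expression after 8 hours of MG132 stress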
# T2 sequence (P38532 whole entry): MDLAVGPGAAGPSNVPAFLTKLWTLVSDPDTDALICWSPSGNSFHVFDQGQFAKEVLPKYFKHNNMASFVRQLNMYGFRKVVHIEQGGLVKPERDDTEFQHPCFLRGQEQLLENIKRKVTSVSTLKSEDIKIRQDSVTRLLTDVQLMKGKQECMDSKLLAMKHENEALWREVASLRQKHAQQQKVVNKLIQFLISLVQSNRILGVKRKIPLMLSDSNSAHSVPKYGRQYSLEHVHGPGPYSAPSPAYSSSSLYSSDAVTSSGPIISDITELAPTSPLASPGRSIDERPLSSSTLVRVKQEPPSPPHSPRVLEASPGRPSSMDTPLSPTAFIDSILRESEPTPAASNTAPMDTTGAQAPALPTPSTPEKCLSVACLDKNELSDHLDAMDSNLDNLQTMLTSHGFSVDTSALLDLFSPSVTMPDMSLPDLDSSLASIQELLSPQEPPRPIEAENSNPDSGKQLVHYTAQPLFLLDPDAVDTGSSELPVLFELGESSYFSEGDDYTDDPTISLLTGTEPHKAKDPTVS
# [2] = growth suppression of PTEN-null colon cells, dose response, cell-based, HCT116 PTEN knockout (AID 1047); type: functional;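 note: HCT116 colon tumor cells with PTEN knocked out; cells exposed to compound for 60 hours before readout; potency for loss of cell viability measured by luminescence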
# [3] = growth suppression of beta-catenin-knockout colon cells, dose response, cell-based, HCT116, human colon tumor (AID 1045); type: functional;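 note: HCT116 colon tumor cells with beta catenin knocked out; cells exposed to compound for 60 hours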
# [4] = Shn3 3'UTR reporter inhibitors, dose response, cell-based, Clone20 osteoblasts, firefly luciferase, cherry-picked (AID 624132); type: functional;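 note: firefly luciferase luminescence from reporter carrying the Shn3 3'UTR in osteoblasts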
# [5] = HepG2 cell cytotoxicity, dose response, cytotoxicity control for Shn3 inhibitor project, CellTiter-Glo, cherry-picked (AID 624134); type: functional, cell-based
# [6] = control 3'UTR Renilla luciferase suppression, dose response, counter-screen for Shn3 inhibitor project, cell-based, Clone20-Shn3RL, cherry-picked (AID 624133); type: functional
# [7] = HEp-2 cell cytotoxicity, dose response, cytotoxicity control for RSV inhibitor project, HTS (AID 2410); type: functional; settings: human respiratory syncytial virus
# cells = type: functional
# [8] = target: T3, Carboxy-terminal domain RNA polymerase II polypeptide A small phosphatase 1 (Homo sapiens, UniProt Q9GZU7); assay: inhibitors of CTDSP1, concentration-response testing, biochemical assay, absorbance-based, actives from ultra-high-throughput screening (AID 540297); type: functional
# T3 sequence (Q9GZU7 whole entry): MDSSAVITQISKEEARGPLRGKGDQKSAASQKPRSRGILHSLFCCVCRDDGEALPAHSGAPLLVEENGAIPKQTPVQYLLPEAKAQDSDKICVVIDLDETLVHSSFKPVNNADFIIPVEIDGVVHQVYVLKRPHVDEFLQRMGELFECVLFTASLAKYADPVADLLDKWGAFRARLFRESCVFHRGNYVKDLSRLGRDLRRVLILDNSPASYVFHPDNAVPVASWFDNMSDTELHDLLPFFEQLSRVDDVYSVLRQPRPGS
# [9] = target: T4, Rac GTPase-activating protein 1 (Homo sapiens, UniProt Q9H0H5); assay: MgcRacGAP GTPase-activating activity inhibitors, confirmation, biochemical, ADP Hunter fluorescence, primary and confirmatory (AID 624330); type: functional
# T4 sequence (Q9H0H5 whole entry): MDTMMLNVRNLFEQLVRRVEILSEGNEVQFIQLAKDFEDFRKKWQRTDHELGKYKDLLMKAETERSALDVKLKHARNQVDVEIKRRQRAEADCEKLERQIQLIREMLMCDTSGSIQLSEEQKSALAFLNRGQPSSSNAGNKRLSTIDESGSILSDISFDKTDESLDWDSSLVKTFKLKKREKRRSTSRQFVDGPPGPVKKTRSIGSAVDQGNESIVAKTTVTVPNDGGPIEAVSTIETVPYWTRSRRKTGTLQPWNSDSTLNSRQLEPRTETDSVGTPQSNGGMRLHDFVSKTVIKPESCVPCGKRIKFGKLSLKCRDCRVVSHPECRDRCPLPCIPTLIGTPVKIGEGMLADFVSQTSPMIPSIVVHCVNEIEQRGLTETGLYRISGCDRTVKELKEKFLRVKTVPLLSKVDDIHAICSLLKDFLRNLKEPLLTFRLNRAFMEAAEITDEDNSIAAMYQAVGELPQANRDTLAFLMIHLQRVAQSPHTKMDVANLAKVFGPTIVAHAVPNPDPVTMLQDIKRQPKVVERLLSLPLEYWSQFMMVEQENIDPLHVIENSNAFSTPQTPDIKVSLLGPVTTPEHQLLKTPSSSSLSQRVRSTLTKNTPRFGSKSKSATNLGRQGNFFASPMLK
# Cytochrome P450 2C9 = Cytochrome P450 2C9 (Homo sapiens, UniProt P11712)
# Cytochrome P450 2C9, sequence (P11712 whole entry): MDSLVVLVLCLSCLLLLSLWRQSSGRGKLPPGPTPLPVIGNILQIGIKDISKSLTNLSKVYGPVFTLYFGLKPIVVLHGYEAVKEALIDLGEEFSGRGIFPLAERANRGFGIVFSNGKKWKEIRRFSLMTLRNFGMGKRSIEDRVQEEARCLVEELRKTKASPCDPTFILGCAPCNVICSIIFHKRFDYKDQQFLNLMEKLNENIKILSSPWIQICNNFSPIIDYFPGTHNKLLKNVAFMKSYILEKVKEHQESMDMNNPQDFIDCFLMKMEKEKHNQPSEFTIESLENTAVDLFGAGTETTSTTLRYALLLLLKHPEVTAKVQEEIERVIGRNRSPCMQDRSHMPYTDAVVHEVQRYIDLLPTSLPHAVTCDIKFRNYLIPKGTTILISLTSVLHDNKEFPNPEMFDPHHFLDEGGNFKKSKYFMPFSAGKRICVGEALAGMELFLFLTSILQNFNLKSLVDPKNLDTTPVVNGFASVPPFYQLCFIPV
# [10] = inhibitors of intracellular T. cruzi replication, confirmation, NIH3T3 host cells, beta-gal luminescence (AID 2044); type: functional, cell-based;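 note: intracellular parasites grown in NIH/3T3 mouse fibroblasts as host cells; luminescent beta-galactosidase reporter signal from transgenic T. cruzi replicating inside host cells; inhibitors lower the luminescence signal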
# [11] = cytotoxicity toward NIH3T3 fibroblasts, dose response, counter-screen, cell-based, ATP luminescence, mouse fibroblasts (AID 2010); type: functional;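 note: cells exposed to compound for about 90 hours before reading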
# [12] = test system: Streptococcus sp. 'group A'; assay: growth inhibition of control SK(-) GAS strain, dose response, counter-screen for streptokinase expression inhibitor project, luminescence, kanamycin, BacTiterGlo, confirmation (AID 1900); type: functional, organism-based
# Streptokinase A = target: T5, Streptokinase A (Streptococcus pyogenes serotype M1, UniProt P10520); assay: S. pyogenes streptokinase expression inhibitors, potency, dose response, plasminogen activation absorbance, OD405 (AID 1914); type: functional, Streptococcus pyogenes M1 GAS;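 note: secreted streptokinase activity via plasminogen activation per viability signal from cell pellet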
# T5 sequence (P10520 whole entry): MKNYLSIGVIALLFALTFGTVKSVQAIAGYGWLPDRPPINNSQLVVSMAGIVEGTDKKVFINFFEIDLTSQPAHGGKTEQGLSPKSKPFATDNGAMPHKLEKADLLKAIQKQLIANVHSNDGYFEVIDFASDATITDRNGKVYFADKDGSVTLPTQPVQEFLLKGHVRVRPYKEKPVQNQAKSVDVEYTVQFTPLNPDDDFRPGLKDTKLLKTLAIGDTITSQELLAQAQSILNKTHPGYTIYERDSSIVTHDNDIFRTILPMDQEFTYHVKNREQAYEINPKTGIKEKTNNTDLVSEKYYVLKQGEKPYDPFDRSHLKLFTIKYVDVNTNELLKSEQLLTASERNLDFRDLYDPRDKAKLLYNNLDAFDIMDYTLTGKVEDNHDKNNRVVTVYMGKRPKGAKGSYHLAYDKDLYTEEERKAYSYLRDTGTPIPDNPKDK
# Streptococcus = assay: Group A Streptococcus viability loss, dose response, counter-screen for streptokinase expression inhibitor project, luminescence, BacTiterGlo (AID 1915); type: functional, organism-based;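 note: potency for reduction of bacterial viability or growth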
# [13] = target: FAD-linked sulfhydryl oxidase ALR (Homo sapiens, UniProt P55789); assay: inhibitors of human ALR sulfhydryl oxidase, dose response, biochemical, H2O2 detection, luminescence, cherry-pick (AID 493248)
# FAD-linked sulfhydryl oxidase ALR, sequence (P55789 whole entry): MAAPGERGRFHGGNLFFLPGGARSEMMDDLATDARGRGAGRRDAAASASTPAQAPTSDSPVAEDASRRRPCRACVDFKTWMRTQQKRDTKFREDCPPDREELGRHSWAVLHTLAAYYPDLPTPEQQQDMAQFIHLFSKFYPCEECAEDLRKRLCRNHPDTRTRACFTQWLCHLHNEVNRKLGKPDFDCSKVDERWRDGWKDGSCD
smiles,measurement,setting,value
CCOc1ccccc1C(=O)Nc1ccc(-n2nncc2C(C)(C)C)cc1,IC50,Protein skinhead-1,> 100 µM (inactive)
Cc1c(Br)c(O)c(Br)c2sc(=O)oc12,IC50,Genome polyprotein,62.3 µM (active)
CCOc1ccc2nc(NC(=O)c3cc([N+](=O)[O-])ccc3N3CCOCC3)sc2c1,EC50,[1],15 µM (active)
same,EC50,[2],23.3 µM (active)
same,EC50,[3],48.5 µM (active)
COc1ccc(-n2c(C)cc(C(=O)CSc3nnc(-c4cccs4)o3)c2C)cc1,AC50,[4],5.03 µM (active)
same,AC50,[5],48.6 µM (active)
same,AC50,[6],5.62 µM (active)
O=C(NC(=S)Nc1ccc(CN2CCCCC2)cc1)c1cc2ccccc2o1,IC50,Protein skinhead-1,32.2 µM (active)
CC(=O)NC(=S)Nc1cccc2c(C)cc(C)nc12,CC50,[7],> 50 µM (active)
Cc1onc(-c2ccccc2)c1C(=O)Nc1nc2c(s1)C(=O)CC(C)(C)C2,IC50,Protein skinhead-1,> 100 µM (inactive)
Cc1ccn2nc(S(=O)(=O)Nc3c(F)cccc3F)nc2n1,IC50,cells,11.2 µM (active)
COc1cc(/C=C2\C(=N)N3N=C(S(C)(=O)=O)SC3=NC2=O)ccc1OC(=O)c1ccco1,IC50,[8],4.55 µM (active)
CCN(CC)CCC(c1cc(OC)c(OC)c(OC)c1)c1c(OC)cc(OC)c2c(C)cc(=O)oc12 (configuration not stated),IC50,Protein skinhead-1,> 100 µM (inactive)
Cc1ccc(-c2noc(CCCC(=O)Nc3cccnc3)n2)cc1,IC50,cells,37.4 µM (active)
Cc1cc(C)c(C(=O)COC(=O)c2ccc([N+](=O)[O-])o2)cc1C,IC50,cells,1 µM (active)
O=C1CCCCCN1Sc1ccccc1,EC50,[2],20.2 µM (active)
same,EC50,[3],16.9 µM (active)
same,IC50,[9],87.6 µM (active)
COC(=O)c1ccc(CCc2cc(O)ccc2O)cc1,AC50,[4],3.14 µM (active)
same,AC50,[5],> 70 µM (inactive)
same,AC50,[6],14.5 µM (active)
same,AC50,Cytochrome P450 2C9,7.94 µM (inconclusive)
CCO/C(O)=C/c1nc2ccccc2oc1=O,IC50,cells,2.88 µM (active)
Cc1[nH]c2ccccc2c1C(=O)C(C)OC(=O)c1ccc([N+](=O)[O-])o1 (configuration not stated),IC50,cells,< 0.1 µM (active)
CC1(C)CC(=O)C(=Cc2cn(CCC#N)nc2-c2ccc(Cl)cc2)C(=O)C1,IC50,Genome polyprotein,31.8 µM (active)
CCN(CC)C(=O)Oc1ccc2cc(Br)ccc2c1,CC50,[7],37 µM (active)
O=C(O)c1cc(S(=O)(=O)N2CCN(S(=O)(=O)c3ccc4ccccc4c3)CC2)ccc1Br,IC50,[8],6.22 µM (active)
CC1N(C)c2cc(NC(=O)c3cccs3)c(P(=O)(Nc3ccc([N+](=O)[O-])cc3)N3CCOCC3)cc2C1(C)C (configuration not stated),CC50,[7],32.1 µM (active)
same,EC50,[10],1.98 µM (active)
same,EC50,[11],> 30 µM (not active)
COc1ccc(CCNC(=O)c2cc(-c3ccc(C)c(C)c3O)[nH]n2)cc1OC,CC50,[7],> 50 µM (active)
C=C1C(=O)OC2C=C(CO)C3OC3C3OC3(C)CC(OC(=O)/C(=C/C)COC(C)=O)C12 (configuration not stated),AC50,[4],5.89 µM (active)
same,AC50,[5],32.2 µM (active)
same,AC50,[6],9.84 µM (active)
COC(=O)COc1ccc(S(=O)(=O)N2CCCCCC2)cc1,IC50,cells,33.5 µM (active)
Cc1cc(=O)c2c(o1)C(=O)c1occc1C2=O,IC50,Genome polyprotein,62.4 µM (active)
CCC(C)(C)c1nnc(NC(=O)CCC2CCCCC2)s1,IC50,Protein skinhead-1,> 100 µM (inactive)
O=C(Oc1ccc(/N=C2\C(=O)c3ccccc3C(O)=C2Cl)cc1)c1ccc([N+](=O)[O-])cc1,EC50,[12],20.7 µM (active)
same,EC50,Streptokinase A,> 150 µM (not active)
same,EC50,[2],9.05 µM (active)
same,EC50,[3],4.97 µM (active)
same,EC50,Streptococcus,44.1 µM (active)
Cc1ccc([N+](=O)[O-])cc1/N=C(\c1cccc(Br)c1)N1CCOCC1,CC50,[7],40.2 µM (active)
CC(=O)/N=C1\SC2CS(=O)(=O)CC2N1c1cccc(Cl)c1Cl (configuration not stated),IC50,Protein skinhead-1,> 100 µM (inactive)
Cc1ccc(-c2csc(N=C(N)N)n2)cc1,CC50,[7],46.4 µM (active)
same,AC50,[13],1.05 µM (active)
